For the assay, the system named is STZ-induced diabetic mice. The experiment in a line: Oral glucose tolerance test in STZ-induced diabetic mice. It is filed as in vivo. The settings on record: 30 mg/kg of bw, glucose 2 g/kg of bw, vs vehicle-treated group (p < 0.05). The method, then: The target compounds 11, 17, and 35 (30 mg/kg of bw) and control drugs (glibenclamide 10 mg/kg of bw) were dissolved in the vehicle (Tween-80, NaCl 0.9%). Glucose (2 g/kg of bw) was used for the glucose tolerance tests. The control mice group received only the vehicle. All cases were treated orally. Blood samples were collected from caudal vein by means of a small incision in the end of the tail. Blood glucose levels were estimated by a commercial glucometer (Bayer Contour TS). For the anti-hyperglycemic tests, blood samples were obtained 0.5, 1, 1.5, 2, and 3 h after the glucose load. Percentage variation of glycemia for each group was calculated with respect to initial (0 h) level according to: % Variation of glycemia=[(Gi−Gt)/Gi]×100% where Gi is initial glycemia values and Gt is the glycemia value after samples administration. For the anti-hyperglycemic tests, data were represented as % variation of glycemia versus time. Studies were performed in normoglycemic and STZ-induced diabetic mice.

For `O=c1oc2ccc(O)cc2cc1-c1ccc(O)cc1` [Compound 17, 6-Hydroxy-3-(4-hydroxyphenyl)-coumarin], the “postprandial glycemia peak in oral glucose tolerance test” value was “caused significant decrease in the postprandial glycemia peak”.
To `COc1ccc(-c2cc3c(O)cc(O)cc3oc2=O)cc1` [Compound 35, 5,7-Dihydroxy-3-(4-methoxyphenyl)-coumarin] belongs “caused significant decrease in the postprandial glycemia peak”.

For the origin of these results see article PMC6211316, “Synthesis and biological evaluation of 3-arylcoumarin derivatives as potential anti-diabetic agents” (Journal of Enzyme Inhibition and Medicinal Chemistry, 2018).
